# Biological target: Tyrosine-protein kinase BTK (Homo sapiens, UniProt Q06187)
# Assay: Lanthscreen Eu Kinase Binding assay: A Lanthscreen Eu Kinase Binding assay (Life Technologies) was performed to quantitate the ability of test compounds to bind to BTK. The assay is based on the binding and displacement of Alexa Fluor647-labeled Kinase Tracer #236 to the ATP-binding site of human full length His-tagged BTK (Life Technologies cat # PV3587) with TR-FRET detection using a europium-labeled anti-His antibody. The assay was assembled in 384-well low volume NBS black plates (Corning) where 2 nM BTK and test compound in DMSO at varying concentrations were pre-incubated for 30 min at 28° C. in assay buffer consisting of 50 mM HEPES, pH 7.4, 10 mM MgCl2, 1 mM EGTA. 100 μM Na3VO4 and 0.01% Brij 35. Then, 2 nM of Eu-anti His antibody and 30 nM Kinase Tracer were added and incubated for […] at 28° C. Following incubation, TR-FRET signal was read on an Envision plate reader (Excitation: 340 nm; Emissions: 615 and 665 nm). The 665: 615 nm emission ratio was calculated and converted to POC compared to control and blank wells.
# Tyrosine-protein kinase BTK, sequence (Q06187 whole entry): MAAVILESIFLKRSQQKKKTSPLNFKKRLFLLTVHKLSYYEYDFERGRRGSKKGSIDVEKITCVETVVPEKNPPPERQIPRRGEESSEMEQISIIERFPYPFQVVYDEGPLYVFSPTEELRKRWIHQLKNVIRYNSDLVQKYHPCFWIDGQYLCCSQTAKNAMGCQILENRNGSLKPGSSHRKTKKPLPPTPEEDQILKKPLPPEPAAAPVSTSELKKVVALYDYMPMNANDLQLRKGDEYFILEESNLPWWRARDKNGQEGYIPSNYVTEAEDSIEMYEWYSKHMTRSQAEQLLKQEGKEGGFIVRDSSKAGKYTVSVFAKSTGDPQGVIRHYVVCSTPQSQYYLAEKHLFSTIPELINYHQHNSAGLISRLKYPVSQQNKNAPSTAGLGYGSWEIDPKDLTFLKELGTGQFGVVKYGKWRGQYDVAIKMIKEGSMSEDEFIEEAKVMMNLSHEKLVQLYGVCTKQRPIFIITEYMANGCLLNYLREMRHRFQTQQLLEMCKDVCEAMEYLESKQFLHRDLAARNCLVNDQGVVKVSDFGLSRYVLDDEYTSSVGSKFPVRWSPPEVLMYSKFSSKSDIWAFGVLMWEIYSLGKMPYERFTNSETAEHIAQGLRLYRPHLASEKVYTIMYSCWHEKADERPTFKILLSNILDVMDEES
smiles,measurement,value
C=CC(=O)N1CC(c2cc3cc(C4CC4)ccc3c(=O)n2-c2cccc(-c3ccnc(N)c3)c2CO)C1,IC50,0.9 nM

# Reference: ChEMBL document CHEMBL5727601, “Isoquinolones as BTK inhibitors” (2020)
